{
  "source": "patent US11931424B2",
  "about": "“Combination MCL-1 inhibitors with anti-body drug conjugates” (Gilead Sciences, Inc., priority 2021, dated 2024)",
  "tested_on": "panel of breast cancer cell lines",
  "assay": "Compound A with targeted agents and chemotherapies, 72-hour in vitro proliferation assays",
  "assay_type": "cell-based",
  "conditions": "compound A × partner, 72-hour proliferation",
  "data": [
    {"smiles": "Cc1c(-c2ccc(N3CCc4cccc(C(=O)Nc5nc6ccccc6s5)c4C3)nc2C(=O)O)cnn1CC12CC3CC(CC(C3)C1)C2", "note": "[Compound A-1331852]", "values": [
      {"measurement": "Best CI", "setting": "BT-20 cell line", "result": 0.01},
      {"measurement": "Bliss Volume", "setting": "BT-20 cell line", "result": 68.96},
      {"measurement": "HSA volume", "setting": "BT-20 cell line", "result": 70.29},
      {"measurement": "Loewe Volume", "setting": "BT-20 cell line", "result": 70.26},
      {"measurement": "Synergy Score", "setting": "BT-20 cell line", "result": 162.62},
      {"measurement": "Best CI", "setting": "CAL-51 cell line", "result": 0.01},
      {"measurement": "Bliss Volume", "setting": "CAL-51 cell line", "result": 56.43},
      {"measurement": "HSA volume", "setting": "CAL-51 cell line", "result": 55.36},
      {"measurement": "Loewe Volume", "setting": "CAL-51 cell line", "result": 56.58},
      {"measurement": "Synergy Score", "setting": "CAL-51 cell line", "result": 118.96},
      {"measurement": "Best CI", "setting": "CAL-85-1 cell line", "result": 0.01},
      {"measurement": "Bliss Volume", "setting": "CAL-85-1 cell line", "result": 49.08},
      {"measurement": "HSA volume", "setting": "CAL-85-1 cell line", "result": 54.69},
      {"measurement": "Loewe Volume", "setting": "CAL-85-1 cell line", "result": 53.39},
      {"measurement": "Synergy Score", "setting": "CAL-85-1 cell line", "result": 114.90},
      {"measurement": "Best CI", "setting": "CAL-120 cell line", "result": 0.04},
      {"measurement": "Bliss Volume", "setting": "CAL-120 cell line", "result": 28.08},
      {"measurement": "HSA volume", "setting": "CAL-120 cell line", "result": 26.51},
      {"measurement": "Loewe Volume", "setting": "CAL-120 cell line", "result": 28.14},
      {"measurement": "Synergy Score", "setting": "CAL-120 cell line", "result": 55.20},
      {"measurement": "Best CI", "setting": "CAL-148 cell line", "result": 0.01},
      {"measurement": "Bliss Volume", "setting": "CAL-148 cell line", "result": 51.23},
      {"measurement": "HSA volume", "setting": "CAL-148 cell line", "result": 55.15},
      {"measurement": "Loewe Volume", "setting": "CAL-148 cell line", "result": 56.80},
      {"measurement": "Synergy Score", "setting": "CAL-148 cell line", "result": 129.75},
      {"measurement": "Best CI", "setting": "CAMA-1 cell line", "result": 0.02},
      {"measurement": "Bliss Volume", "setting": "CAMA-1 cell line", "result": 41.48},
      {"measurement": "HSA volume", "setting": "CAMA-1 cell line", "result": 38.74},
      {"measurement": "Loewe Volume", "setting": "CAMA-1 cell line", "result": 40.35},
      {"measurement": "Synergy Score", "setting": "CAMA-1 cell line", "result": 89.71},
      {"measurement": "Best CI", "setting": "DU-4475 cell line", "result": 0.41},
      {"measurement": "Bliss Volume", "setting": "DU-4475 cell line", "result": 34.50},
      {"measurement": "HSA volume", "setting": "DU-4475 cell line", "result": 31.29},
      {"measurement": "Loewe Volume", "setting": "DU-4475 cell line", "result": 31.62},
      {"measurement": "Synergy Score", "setting": "DU-4475 cell line", "result": 49.81},
      {"measurement": "Best CI", "setting": "EVSA-T cell line", "result": 0.11},
      {"measurement": "Bliss Volume", "setting": "EVSA-T cell line", "result": 31.72},
      {"measurement": "HSA volume", "setting": "EVSA-T cell line", "result": 28.03},
      {"measurement": "Loewe Volume", "setting": "EVSA-T cell line", "result": 29.10},
      {"measurement": "Synergy Score", "setting": "EVSA-T cell line", "result": 63.11},
      {"measurement": "Best CI", "setting": "HCC38", "result": 0.03},
      {"measurement": "Bliss Volume", "setting": "HCC38", "result": 36.56},
      {"measurement": "HSA volume", "setting": "HCC38", "result": 31.80},
      {"measurement": "Loewe Volume", "setting": "HCC38", "result": 30.82},
      {"measurement": "Synergy Score", "setting": "HCC38", "result": 60.48},
      {"measurement": "Best CI", "setting": "HCC70", "result": 0.00},
      {"measurement": "Bliss Volume", "setting": "HCC70", "result": 73.73},
      {"measurement": "HSA volume", "setting": "HCC70", "result": 74.12},
      {"measurement": "Loewe Volume", "setting": "HCC70", "result": 74.78},
      {"measurement": "Synergy Score", "setting": "HCC70", "result": 173.58},
      {"measurement": "Best CI", "setting": "HCC1143 cell line", "result": 0.00},
      {"measurement": "Bliss Volume", "setting": "HCC1143 cell line", "result": 53.10},
      {"measurement": "HSA volume", "setting": "HCC1143 cell line", "result": 51.70},
      {"measurement": "Loewe Volume", "setting": "HCC1143 cell line", "result": 52.79},
      {"measurement": "Synergy Score", "setting": "HCC1143 cell line", "result": 89.24},
      {"measurement": "Best CI", "setting": "HCC1569", "result": 0.01},
      {"measurement": "Bliss Volume", "setting": "HCC1569", "result": 43.44},
      {"measurement": "HSA volume", "setting": "HCC1569", "result": 40.52},
      {"measurement": "Loewe Volume", "setting": "HCC1569", "result": 40.04},
      {"measurement": "Synergy Score", "setting": "HCC1569", "result": 86.99},
      {"measurement": "Best CI", "setting": "HCC1806", "result": 0.00},
      {"measurement": "Bliss Volume", "setting": "HCC1806", "result": 83.58},
      {"measurement": "HSA volume", "setting": "HCC1806", "result": 85.67},
      {"measurement": "Loewe Volume", "setting": "HCC1806", "result": 85.91},
      {"measurement": "Synergy Score", "setting": "HCC1806", "result": 183.39},
      {"measurement": "Best CI", "setting": "HCC1937", "result": 0.00},
      {"measurement": "Bliss Volume", "setting": "HCC1937", "result": 69.83},
      {"measurement": "HSA volume", "setting": "HCC1937", "result": 71.58},
      {"measurement": "Loewe Volume", "setting": "HCC1937", "result": 71.06},
      {"measurement": "Synergy Score", "setting": "HCC1937", "result": 157.43},
      {"measurement": "Best CI", "setting": "HCC1954", "result": 0.01},
      {"measurement": "Bliss Volume", "setting": "HCC1954", "result": 53.64},
      {"measurement": "HSA volume", "setting": "HCC1954", "result": 55.54},
      {"measurement": "Loewe Volume", "setting": "HCC1954", "result": 55.53},
      {"measurement": "Synergy Score", "setting": "HCC1954", "result": 121.26},
      {"measurement": "Best CI", "setting": "HCC2218", "result": 0.01},
      {"measurement": "Bliss Volume", "setting": "HCC2218", "result": 47.29},
      {"measurement": "HSA volume", "setting": "HCC2218", "result": 47.84},
      {"measurement": "Loewe Volume", "setting": "HCC2218", "result": 46.72},
      {"measurement": "Synergy Score", "setting": "HCC2218", "result": 99.88},
      {"measurement": "Best CI", "setting": "HDQ-P1", "result": 0.01},
      {"measurement": "Bliss Volume", "setting": "HDQ-P1", "result": 58.35},
      {"measurement": "HSA volume", "setting": "HDQ-P1", "result": 61.13},
      {"measurement": "Loewe Volume", "setting": "HDQ-P1", "result": 60.82},
      {"measurement": "Synergy Score", "setting": "HDQ-P1", "result": 132.76},
      {"measurement": "Best CI", "setting": "HMC-1-8", "result": 0.11},
      {"measurement": "Bliss Volume", "setting": "HMC-1-8", "result": 21.81},
      {"measurement": "HSA volume", "setting": "HMC-1-8", "result": 19.39},
      {"measurement": "Loewe Volume", "setting": "HMC-1-8", "result": 20.77},
      {"measurement": "Synergy Score", "setting": "HMC-1-8", "result": 39.01},
      {"measurement": "Best CI", "setting": "JIMT-1", "result": 0.01},
      {"measurement": "Bliss Volume", "setting": "JIMT-1", "result": 57.07},
      {"measurement": "HSA volume", "setting": "JIMT-1", "result": 57.74},
      {"measurement": "Loewe Volume", "setting": "JIMT-1", "result": 57.21},
      {"measurement": "Synergy Score", "setting": "JIMT-1", "result": 126.70},
      {"measurement": "Best CI", "setting": "KPL-1", "result": 0.03},
      {"measurement": "Bliss Volume", "setting": "KPL-1", "result": 26.84},
      {"measurement": "HSA volume", "setting": "KPL-1", "result": 25.88},
      {"measurement": "Loewe Volume", "setting": "KPL-1", "result": 26.65},
      {"measurement": "Synergy Score", "setting": "KPL-1", "result": 36.44}
    ]}
  ]
}
